How the values were obtained:
[1] = system: bacterial isolate 180507-1 (IDAC)
[2] = system: bacterial isolate 180507-1 (IDAC); assay type: cell-based

Row | Compound | degradation by the selected isolate (deepoxidation and/or deacylation) [1] | Reaction (sensitivity of the isolate) [2]
1 | CC(=O)OCC12CCC(C)=CC1OC1C(O)C(O)C2(C)C12CO2 (stereo not shown) [15-monoacetoxyscirpenol] | degraded | 
2 | CC(=O)OC[C@]12[C@H](O)C(=O)C(C)=C[C@H]1O[C@@H]1[C@H](O)C[C@@]2(C)[C@]12CO2 [15-acetyldeoxynivalenol] | degraded | 
3 | CC1=C[C@H]2O[C@@H]3[C@H](O)[C@@H](O)[C@](C)([C@@]2(CO)C[C@@H]1OC(=O)CC(C)C)[C@]31CO1 [T-2 triol] | degraded | 
4 | CC1=C[C@H]2O[C@@H]3[C@H](O)[C@@H](O)[C@](C)([C@@]2(CO)[C@H](O)C1=O)[C@]31CO1 [nivalenol] | degraded | 
5 | CC(=O)OC[C@]12C[C@H](OC(=O)CC(C)C)C(C)=C[C@H]1O[C@@H]1[C@H](O)[C@@H](O)[C@@]2(C)[C@]12CO2 [HT-2 toxin] | degraded | 
6 | CC(=O)O[C@@H]1[C@@H](O)[C@H]2O[C@@H]3C=C(C)C(=O)[C@@H](O)[C@]3(CO)[C@]1(C)[C@]21CO1 [fusarenon X] | degraded | 
7 | CC(=O)O[C@@H]1C[C@]2(C)[C@@]3(CO)[C@H](O)C(=O)C(C)=C[C@H]3O[C@H]1[C@@]21CO1 [3-acetyldeoxynivalenol] | degraded | 
8 | Vancomysin |  | Sensitive
9 | CC(=O)OC[C@]12C[C@H](O)C(C)=C[C@H]1O[C@@H]1[C@H](O)[C@@H](OC(C)=O)[C@@]2(C)[C@]12CO2 [neosolaniol] | degraded | 
10 | 4-diacetoxyscirpenol | degraded | 
